In patent US5795897A, “Oxohexyl methylxanthine compounds” (Cell Therapeutics, Inc., priority 1994, dated 1998):
Entries after “also recorded” stand apart in the source; their conditions may differ.

Columns and labels:
[1] = test system: synaptosomes stimulated with acetylcholine and/or epinephrine (PA and DAG); experiment: PA and DAG levels in stimulated synaptosomes; format: biochemical
Method: (§1) One in vitro assay measures inhibition of the relevant enzymes lysophosphatidic acid acyltransferase (LPAAT) and phosphatidic acid phosphoryl hydrolase (PAPH). The assay involves incubating of target cells with a primary stimulus (e.g., a variety of cytokines, growth factors, oncogene products, putative therapeutic agents, irradiation, viral infection, toxins, bacterial infection and the products thereof, and any stimulus which, if not counteracted, has a deleterious effect on the target cell) in the presence or absence of 1-(5-oxohexyl)-3-methylxanthineat varying dosage levels. Target cells include, for example, subcellular entities, such as, microsomes derived from mesenchymal and/or ectodermal cells, particularly microsomes from marrow stromal cells or human or rat mesangial cells; microsomes or synaptosomes derived from bovine brain; plasma membrane-enriched microsomes or plasma membranes derived as described in Bursten et al. (J. Biol. Chem. […]:20732-20743, 1991) detergent-solubilized microsomes; synaptosomes, and membranes or other cell preparations solubilized using, for example, NP-40,Miranal, SDS or other neutral detergents; and detergent-solubilized or further purified preparations of cell proteins, including the proteins LPAAT and/or PAPH. […] Thus, the relevant unsaturated (non-arachidonic) PA and DAG subspecies may be detected. […]

[2] = test system: U937 cells to TNF activated human umbilical vein endothelial cells (HUVEC); experiment: Adhesion of U937 cells to TNF-activated HUVEC; format: cell-based; details: FIG. 2
Method: This example illustrates the effects of CT1505 to inhibit adhesion of U937 cells to TNF-activated HUVEC cells In this experiment, HUVEC cells were induced with human TNF-α(20ng/ml) and incubated with drug (CT1505) at varying concentrations for 14-16 hrs. U937 cells (a human monocyte cell line) were incubated and labeled with BCECF (10 μg/ml), a fluorescent dye. The U937 cell preparation (2.5×10^4 cells per well) was layered on top of the activated HUVEC cells. The cells were reverse spun to remove partially adhering and nonadhering U937 cell. The adherent U937 cells were measured by fluorescence on a fluorescent plate reader.

[3] = test system: L929 murine fibroblast cells; experiment: L929 TNF cytotoxicity assay (protection, fluorescent viability dye); format: cell-based; details: TNF-α 500 pg/ml, 40 hrs at 37° C; 2 hrs preincubation; FIG. 1
Method: The cells plus (or minus) drug plus TNF were incubated for 40 hrs at 37° C.

PA and DAG = experiment: Elevation of PA and DAG upon primary stimulus; format: cell-based; details: e.g. interleukin-1 or TNF
Method: as §1

NIH-3T3 cells = experiment: Cytotoxicity on NIH-3T3 cells; format: cell-based; details: various concentrations, FIG. 4
Method: (§2) The cells were treated with various concentrations of CT1505 (in the mM range on a log scale) and later stained for cell viability with a fluorescence stain.
(§3) 1-(5-oxohexyl)-3-methylxanthine was investigated for cytotoxicity to determine appropriate doses for biological activity assays and to prevent cytotoxic reactions in in vitro assays when characterizing activity. Cells (e.g., NIH-3T3, Ras transformed 3T3 cells, malignant melanoma LD2 cells, etc.) are added to microtiter plates and drug is added about two days after plating. Cell viability is determined using a fluorescent viability stain (2', 7'-bis-(2-carboroxyethyl)-5-(and -6)-carboxyfluorescein acetoxymethyl ester, BCECF excitation 488 nm and emission 525 nm) 24,48 or 72 hours after addition of the drug.
(§4) This example illustrates that CT1505 has cytotoxic activity for NIH-3T3 and NIH-Ras transformed tumor cells. Cytotoxicity of the cells was determined with concentrations of CT1505 up to 1.0 mM (see FIG. 4).

[4] = test system: PBMC (peripheral blood mononuclear cells); experiment: Mixed lymphocyte reaction; format: cell-based, human; details: CT1505 versus PTX, FIG. 5
From the text: Various in vitro assays can be used to measure effects of 1-(5-oxohexyl)-3methylxanthine to module immune activity and have antitumor activity using a variety of cellular types. For example, a mixed lymphocyte reaction (MLR) provides a valuable screening tool to determine biological activity of 1-(5-oxohexyl)-3-methylxanthine. In the MLR, PBMCs (peripheral blood mononuclear cells) are obtained by drawing whole blood from healthy volunteers in a heparinized container and diluted with an equal volume of hanks balanced salt solution (HBSS). This mixture is layered on a sucrose density gradient, such as a Ficoll-Hypaque® gradient (specific gravity 1.08), and centrifuged at 1000×g for 25 minutes at room temperature or cooler. PBMC are obtained from a band at a plasma-Ficoll interface, separated and washed at least twice in a saline solution, such as HBSS. Contaminating red cells are lysed, such as by ACK lysis for 10 min at 37° C., and the PBMCs are washed twice in HBSS. The pellet of purified PBMCs is resuspended in complete medium, such as RPMI 1640 plus 20% human inactivated serum. Proliferative response of PBMC to allogeneic stimulation is determined in a two-way MLR performed in a 96-well microtiter plate. […] At the conclusion of the incubation tritiated thymidine is added (for example, 1 μCi/well of 40 to 60 Ci/mmole) and proliferation determined by liquid scintillation counting. […]

[5] = test system: LD-2 cells, a human malignant melanoma cell line; experiment: Cytotoxicity on LD-2 cells; format: cell-based; details: various concentrations, FIG. 3
Method: The cells were treated with various concentrations of CT1505 and later stained for cell viability with a fluorescence stain.
as §3
This example illustrates that CT1505 has cytotoxic activity for the LD-2 tumor cell line. Cytotoxicity of LD-2 cells was determined with concentrations of CT1505 up to 1.0 mM (see FIG. 3).

NIH-3T3 Ras cells = experiment: Cytotoxicity on Ras transformed NIH-3T3 cells; format: cell-based; details: various concentrations, FIG. 4
Method: as §2, §3, §4

[6] = test system: polymorphonuclear leukocytes; details: in response to a stimulator of chemotaxis; U.S. Pat. No. 4,636,507; cited from earlier work
[7] = U.S. Pat. Nos 4,515,795 and 4,576,947; cited from earlier work
certain cytokines = details: U.S. Pat. Nos. 4,965,271 and 5,096,906; cited from earlier work
TNF = details: normal volunteers; cited from earlier work

SMILES | effect on enhanced PA and DAG levels [1] | concentration range of adhesion inhibitory activity ([2]; TNF-activated HUVEC) | inhibition of adhesion of U937 cells to activated HUVEC ([2]; TNF-α 20 ng/ml, 14-16 hrs) | protection of fibroblast cells from TNF cytotoxicity [3] | effect on elevation of PA and DAG levels (PA and DAG) | cytotoxicity (NIH-3T3 cells) | immune modulating activity [4] | cytotoxicity [5] | cytotoxicity (NIH-3T3 Ras cells) | chemotaxis in polymorphonuclear leukocytes [6] | cerebral blood flow [7] | activity of certain cytokines to affect chemotaxis (certain cytokines) | TNF levels (TNF)
CC(=O)CCCCn1c(=O)c2[nH]cnc2n(C)c1=O [CT1505, 1-(5-oxohexyl)-3-methylxanthine] | able to decrease enhanced levels of a relevant PA and DAG | tenths of mM | inhibits adhesion of U937 cells to TNF activated human umbilical vein endothelial cells; also recorded: inhibited the inflammatory response of the activated HUVEC cells to adhere U937 monocytes in a dose response fashion | protected the fibroblast cells from TNF cytotoxicity better than PTX and much better than the control cells | reverses this elevation | cytotoxic at higher concentrations | more potent immune modulating activity with CT1505 than with PTX; also recorded: more potent drug for cause immune modulating activity than was PTX | cytotoxic at higher concentrations | cytotoxic at higher concentrations | – | – | – | –
CC(O)CCCCn1c(=O)c2c(ncn2C)n(C)c1=O (centres unmarked) [M1, 1-(5-hydroxyhexyl)-3,7-dimethylxanthine] | – | – | – | – | – | – | – | – | – | stimulate chemotaxis | increasing cerebral blood flow | – | –
CC(=O)CCCCn1c(=O)c2c(ncn2C)n(C)c1=O [PTX, 1-(5-oxohexyl)-3,7-dimethylxanthine] | – | – | – | – | – | – | – | – | – | stimulate chemotaxis | – | inhibit activity of certain cytokines | TNF levels were higher among PTX recipients
